For assay [1], the system named is Streptococcus pyogenes (Group A streptococcus) 594. Description: MIC/MBC at 24 hours. In kind it is cell-based. The settings on record: Streptococcus pyogenes GAS 594, Time 0 2.7E+06 CFU/ml, stationary at 37° C. in 5% CO2. On the procedure:
Streptococcus pyogenes (Group A streptococcus) 594 is a standard scarlet fever strain that has been extensively published on. The strain was incubated stationary at 37° C. in 5% CO2.
(§1) All solutions used in the MBC and MIC studies were prepared from a stock of 100 mg/ml of either GML, SGML or S2GML in absolute ethanol.

A further assay concerns Bacillus subtilis. The assay is described as follows: MIC/MBC at 24 hours. The conditions noted are these: Time 0 1.1E+07 CFU/ml, 200 RPM shaking at 37° C. In kind it is cell-based. On the procedure:
Bacillus subtilis, an aerobic spore-former, was incubated with 200 RPM shaking at 37° C. The strain was a recent clinical isolate at the University of Iowa, and proves to develop resistance to standard […] agents.
as §1

The test system of assay [2] is Staphylococcus aureus strain MN8. The assay is described as follows: MIC and MBC assay, broth dilution with plate counts. In kind it is cell-based. The settings on record: for minimum bactericidal concentration (MBC) / minimum inhibitory concentration (MIC): Staphylococcus Aureus MN8 strain, 24-hour incubation, Todd Hewitt broth, aerobic 37° C.; for activity compared with GML (log CFU/mL, FIGS. 1A and 1B): staphylococcus aureus MN8 cultured with various concentrations. How it is done:
For this experiment, all cultures were aerobic at 37° C. with 150 RPM gyrotary shaking. Stationary phase with this microbe is 1.0x1010 colony-forming units (CFUs)/ml. The next morning the culture was diluted to approximately 5x10^6/ml in 1 ml amounts of Todd Hewitt broth in 5 ml polystyrene test tubes. The tubes contained serial two-fold dilutions of glycerol monolaurate, SGML, or […]. The control tubes contained no GML or SGML and […] compounds. The compounds were tested in triplicate. […] The control tube contained the highest volume of ethanol that was used to deliver the compounds to each 1 ml test tube. […] Once plated, the plates were incubated aerobically for 24 hours at 37° C. Counts were made to determine CFUs/ml. The CFUs/ml were log-transformed and mean ± SD were determined. Using the standard MIC and MBC assay above with staphylococcus aureus strain […] and […] were tested with GML.

The test system of a further assay is Candida auris. Description: MIC/MBC at 24 hours. In kind it is cell-based. The conditions noted are these: Time 0 4.5E+05 CFU/ml. How it is done: Candida auris is a newly emerging yeast (fungus) that is causing skin and bloodstream infections in humans. It easily becomes resistant to anti-fungal agents, making development of novel therapeutics a necessity. This organism is related to Candida albicans and other Candida species. The MIC and MBC in the above table show very good activity of both the SGML and S2GML versus this organism.
as §1

Assay [3] deals with Lipase (glycerol ester hydrolase). The assay is described as follows: Lipase (glycerol ester hydrolase) assay, esterase resistance. In kind it is biochemical, Staphylococcus aureus. The conditions noted are these: 500 ug/ml compound; lipase 25 ug/ml; 24 hours at 37° C. How it is done: Protocol for Lipase (glycerol ester hydrolase) assay: • 1. Two separate samples of lipase at 25 ug/ml were prepared. • 2. Microscope slides were made up with 500 ug/ml of GML, SGML, or S2ML compounds. • These slides contained 0.85% agarose (Difco) heat solubilized into PBS (0.005 M NaPO4 pH 7.2; 0.15MNaC1). • 3. The mixtures contained the compounds above their solubility limits, so they were vortexed, and 4.5 ml of the cloudy mixtures was spread onto microscope slides. • 4. The slides remained at room temperature for 1 hour to allow the agarose to solidify. • 5. The, 4 mm wells were punched into the agarose, twice per slide. • 6. 20 ul of the Lipase was added to each well. • 7. The slides were incubated for 24 hours at 37° C. • 8. The diameter squared was determined for each. This allows determination of hydrolysis of compound. • GML: 15 mm; 15 mm diameters (diameters squared=225 mm) • SGML: 12 mm; 13 mm diameters (diameters squared=144 mm and 169 mm for an average of 156.5 mm) • S2GML: 0 mm; 0 mm diameters (diameters squared=0) • 10. Diameter squared is used to the determination would be a straight line with a standard curve. • Set GML at 100% • 11. SGML is 70% as much as GML • 12. S2GML is 0% of GML

In a further assay the test system is TSST-1. The class given is cell-based, Staphylococcus aureus.
Another assay has as its system Escherichia coli. The assay is described as follows: MIC and MBC test with E. coli. In kind it is cell-based. The settings on record: for effectiveness compared with GML (FIG. 3): E. coli MIC and MBC test; for Minimum Inhibitory Concentration / Mininum Bactericidal Concentration: E. coli laboratory strain from a patient with urinary tract infection, same conditions as S. aureus MN8. On the procedure:
The conditions for this test were the same as in the above example with S. aureus MN8. The E. coli strain was a laboratory strain from a patient with a confirmed urinary tract infection. The strain is maintained in the laboratory at -80° C.

≈ marks a conversion by molar mass, not a printed value.

`CCCCCCCCCCCC(=S)SCC(O)CO` (stereo not shown) [Example S2GML, glycerol dithionomonolaureate]: the MIC/MBC in assay [1] was less than 0.1 µg/mL. For the same compound, in the assay with Bacillus subtilis, the MIC/MBC was less than 1.0 µg/mL. In addition, in assay [2], the “minimum bactericidal concentration (MBC)” value came to 63.5 µg/mL (≈ 207 µM); the “minimum inhibitory concentration (MIC)” value is 31.125 µg/mL (≈ 102 µM); the “activity compared with GML (log CFU/mL, FIGS. 1A and 1B)” value is “clearly has more activity”. Also, the MIC/MBC against Candida auris is 1.0 µg/mL (≈ 3.26 µM). Further, the “hydrolysis as % of GML (diameter squared, GML set at 100%)” value in assay [3] is on record as 0%. For the same compound, the “inhibition of TSST-1” value in the assay on TSST-1 is reported as less than 4 µg/mL. In the assay on Escherichia coli, the “effectiveness compared with GML (FIG. 3)” value was “performed similarly to GML”, the “Minimum Inhibitory Concentration” value was determined as 500 µg/mL and the “Mininum Bactericidal Concentration” value came out at 500 µg/mL.

For `CCCCCCCCCCCC(=S)OCC(O)CO` (stereo not shown) [SGML, glycerol thionomonolaureate], the MIC/MBC in assay [1] amounted to 0.1 µg/mL (≈ 0.344 µM). For the same compound, the MIC/MBC against Bacillus subtilis is 10 µg/mL (≈ 34.4 µM). Also, in assay [2], the “minimum bactericidal concentration (MBC)” value was 125 µg/mL (≈ 430 µM); the “minimum inhibitory concentration (MIC)” value is on record as 125 µg/mL (≈ 430 µM); the “activity compared with GML (log CFU/mL, FIGS. 1A and 1B)” value is “more active than GML”. Also, in the assay with Candida auris, the MIC/MBC came out at 10 µg/mL (≈ 34.4 µM). Moreover, the “hydrolysis as % of GML (diameter squared, GML set at 100%)” value in assay [3] was found to be 70%. In the assay on TSST-1, the “inhibition of TSST-1” value stood at 8 µg/mL. For the same compound, in the assay with Escherichia coli, the “effectiveness compared with GML (FIG. 3)” value was “more effective than GML”, the “Minimum Inhibitory Concentration” value was found to be 250 µg/mL and the “Mininum Bactericidal Concentration” value was 250 µg/mL.

(Values after patent US20230174473A1, “ANTIMICROBIAL AND ANTIVIRAL SULFUR CONTAINING GLYCEROL MONOESTER DERIVATIVES” (priority 2020, published 2023).)
